Results as given in patent US8314123B2, “5, 6, or 7-substituted -3-(hetero) arylisoquinolinamine derivatives and therapeutic use thereof” (Rexahn Pharmaceuticals, Inc., priority 2006, dated 2012).

Columns and labels:
Type in all cases: cell-based
PC3 (prostate) = experiment: In vitro cell proliferation assay (SRB), PC3; details: Homo sapiens; SRB method, 96 hours; read-out: Inhibition of cell growth (IC50, μM) PC3
Method: (§1) Cancer cell lines to determine the effect of 5, 6, or 7-substituted-3-(hetero)arylisoquinolinamine compounds were obtained from the following sources: Human MDA-MB-231 (breast), PC3 (prostate), HCT-15 (colon), HCT116 (colon), OVCAR-3 (ovary), Caki-1 (kidney), PANC-1 (pancreas), SNB-19 (glioblastoma) and SK-MEL-28 (melanoma) from the American Type Culture Collection (ATCC) (Manassas, Va.). PC3, OVCAR-3, SK-MEL-28 and SNB-19 were grown in RPMI1640 medium (Invitrogen, Carlsbad, Calif.) supplemented with 10% fetal bovine serum (“FBS”), 1 mM sodium pyruvate, 10 mM HEPES and 100 U/ml penicillin and 100 μg/ml streptomycin (“P/S”). MDA-MB-231, Caki-1, HCT-15 (colon) and PANC-1 cells were maintained in Dulbecco's modified Eagle's medium (“DMEM”, Invitrogen) supplemented with 10% FBS, P/S and 10 mM HEPES. HCT116 cells were maintained in DMEM supplemented with 10% FBS, P/S and 10 mM HEPES for in vitro cell proliferation assay and in RPMI1640 medium supplemented with 10% FBS, 1 mM sodium pyruvate, 10 mM HEPES and P/S for in vitro cell cycle analysis. All cells were incubated at 37° C. under humidified 5% CO2.
(§2) The growth inhibition of the 5, 6, or 7-substituted-3-(hetero)arylisoquinolinamine derivatives against a variety of human tumor cells was evaluated to study the relative importance of particular substituent groups on the compounds. The 5, 6, or 7-substituted-3-(hetero)arylisoquinolinamine derivatives, prepared as described above, were tested with DMSO as a control.
(§3) The growth inhibition assay of representative 5, 6, or 7-substituted-3-(hetero)arylisoquinolinamine derivatives against human tumor cell lines was performed using the Sulforhodamine B (“SRB”) method (Skehan et al., J. National Cancer Institute, 82: 1107-1112 (1990)). Briefly, exponentially growing tumor cells were seeded into a 96-well plate at a density of 2-3×10^3 cells/well and treated with 5, 6, or 7-substituted-3-(hetero)arylisoquinolinamine compounds the next day. Triplicate wells were used for each treatment. The cells were incubated with the various compounds for 96 hours at 37° C. in a humidified 5% CO2 atmosphere. After 96-hour incubation, cells were fixed with 10% trichloroacetic acid (“TCA”), incubated for 1 hour at 4° C., and washed 3 times with tap water. Subsequently, cells were stained with 0.4% sulforhodamine B in 1% acetic acid for 30 minutes, washed 4 times with 1% acetic acid, and air-dried again. After 5 minutes agitation in 10 mM Tris solution, the absorbance of each well was measured at 530 nm using Benchmark Plus Microplate reader (Bio-Rad Laboratories, Hercules, Calif.).
(§4) To translate the OD530 values into the number of live cells in each well, the OD530 values were compared to those on standard OD530-versus-cell number curves generated for each cell line. The percent survival was calculated using the formula: % Survival=live cell number [test]/live cell number [control]×100
(§5) The IC50 values were calculated by non-linear regression analysis.

SNB-19 (glioblastoma) = experiment: In vitro cell proliferation assay (SRB), SNB19; details: Homo sapiens, SRB method, 96 hours, read-out: Inhibition of cell growth (IC50, μM) SNB19
Method: as §1, §2, §3, §4, §5

PANC-1 (pancreas) = experiment: In vitro cell proliferation assay (SRB), PANC-1; details: Homo sapiens, SRB method, 96 hours, read-out: Inhibition of cell growth (IC50, μM) PANC-1
Method: as §1, §2, §3, §4, §5

MDA-MB-231 (breast) = experiment: In vitro cell proliferation assay (SRB), MDA-MB-231; details: Homo sapiens, SRB method, 96 hours, read-out: Inhibition of cell growth (IC50, μM) MDA-MB-231
Method: as §1, §2, §3, §4, §5

SK-MEL-28 (melanoma) = experiment: In vitro cell proliferation assay (SRB), SK-MEL-28; details: Homo sapiens, SRB method, 96 hours, read-out: Inhibition of cell growth (IC50, μM) SK-MEL-28
Method: as §1, §2, §3, §4, §5

HCT116 (colon) = experiment: In vitro cell proliferation assay (SRB), HCT116; details: Homo sapiens, HCT-116; SRB method, 96 hours; Table 3; read-out: Inhibition of cell growth (IC50, μM) HCT116
Method: as §1, §2, §3, §4, §5

OVCAR-3 (ovary) = experiment: In vitro cell proliferation assay (SRB), OVCAR3; details: Homo sapiens, SRB method, 96 hours, read-out: Inhibition of cell growth (IC50, μM) OVCAR3
Method: as §1, §2, §3, §4, §5

Caki-1 (kidney) = experiment: In vitro cell proliferation assay (SRB), Caki-1; details: Homo sapiens, SRB method, 96 hours, read-out: Inhibition of cell growth (IC50, μM) Caki-1
Method: as §1, §2, §3, §4, §5

COc1ccc2c(N)nc(-c3ccccc3)cc2c1 [Compound 11, 6-methoxy-3-phenylisoquinolin-1-amine]
IC50 (PC3 (prostate)): 0.77 µM
IC50 (SNB-19 (glioblastoma)): 0.63 µM
IC50 (PANC-1 (pancreas)): 0.65 µM
IC50 (MDA-MB-231 (breast)): 0.34 µM
IC50 (SK-MEL-28 (melanoma)): 0.46 µM
IC50 (HCT116 (colon)): 0.45 µM
IC50 (OVCAR-3 (ovary)): 0.27 µM
IC50 (Caki-1 (kidney)): 0.47 µM

COc1ccccc1-c1cc2cc(C)ccc2c(N)n1 [Compound 24, 3-(2-Methoxyphenyl)-6-methylisoquinolin-1-amine]
IC50 (PC3 (prostate)): > 3 µM
IC50 (SNB-19 (glioblastoma)): 1.13 µM
IC50 (PANC-1 (pancreas)): 0.93 µM
IC50 (MDA-MB-231 (breast)): 0.44 µM
IC50 (SK-MEL-28 (melanoma)): 0.8 µM
IC50 (HCT116 (colon)): 0.67 µM
IC50 (OVCAR-3 (ovary)): 0.49 µM
IC50 (Caki-1 (kidney)): 0.35 µM

COc1ccc(-c2cc3cc(C)ccc3c(N)n2)cc1 [Compound 26, 3-(4-Methoxyphenyl)-6-methylisoquinolin-1-amine]
IC50 (PC3 (prostate)): 2.98 µM
IC50 (SNB-19 (glioblastoma)): 2.23 µM
IC50 (PANC-1 (pancreas)): 2.27 µM
IC50 (MDA-MB-231 (breast)): 0.93 µM
IC50 (SK-MEL-28 (melanoma)): 1.8 µM
IC50 (HCT116 (colon)): 1.36 µM
IC50 (OVCAR-3 (ovary)): 0.79 µM
IC50 (Caki-1 (kidney)): 0.75 µM

COc1ccc(-c2cc3cc(C)ccc3c(N)n2)cc1OC [Compound 27, 3-(3,4-Dimethoxyphenyl)-6-methylisoquinolin-1-amine]
IC50 (PC3 (prostate)): 2.69 µM
IC50 (SNB-19 (glioblastoma)): 2.15 µM
IC50 (PANC-1 (pancreas)): 1.75 µM
IC50 (MDA-MB-231 (breast)): 0.66 µM
IC50 (SK-MEL-28 (melanoma)): 1.41 µM
IC50 (HCT116 (colon)): 0.85 µM
IC50 (OVCAR-3 (ovary)): 0.57 µM
IC50 (Caki-1 (kidney)): 0.51 µM

COc1cc(OC)cc(-c2cc3cc(C)ccc3c(N)n2)c1 [Compound 30, 3-(3,5-Dimethoxyphenyl)-6-methylisoquinolin-1-amine]
IC50 (PC3 (prostate)): 0.43 µM
IC50 (SNB-19 (glioblastoma)): 0.47 µM
IC50 (PANC-1 (pancreas)): 0.38 µM
IC50 (MDA-MB-231 (breast)): 0.18 µM
IC50 (SK-MEL-28 (melanoma)): 0.41 µM
IC50 (HCT116 (colon)): 0.24 µM
IC50 (OVCAR-3 (ovary)): 0.18 µM
IC50 (Caki-1 (kidney)): 0.16 µM

Cc1ccc2c(N)nc(-c3ccccc3F)cc2c1 [Compound 33, 3-(2-Fluorophenyl)-6-methylisoquinolin-1-amine]
IC50 (PC3 (prostate)): 1.84 µM
IC50 (SNB-19 (glioblastoma)): 1.51 µM
IC50 (PANC-1 (pancreas)): 1.59 µM
IC50 (MDA-MB-231 (breast)): 0.55 µM
IC50 (SK-MEL-28 (melanoma)): 1.07 µM
IC50 (HCT116 (colon)): 0.7 µM
IC50 (OVCAR-3 (ovary)): 0.57 µM
IC50 (Caki-1 (kidney)): 0.46 µM

Cc1cccc(-c2cc3cc(C)ccc3c(N)n2)c1 [Compound 35, 6-Methyl-3-m-tolylisoquinolin-1-amine]
IC50 (PC3 (prostate)): 1.19 µM
IC50 (SNB-19 (glioblastoma)): 0.75 µM
IC50 (PANC-1 (pancreas)): 1.28 µM
IC50 (MDA-MB-231 (breast)): 0.57 µM
IC50 (SK-MEL-28 (melanoma)): 0.72 µM
IC50 (HCT116 (colon)): 0.59 µM
IC50 (OVCAR-3 (ovary)): 0.47 µM
IC50 (Caki-1 (kidney)): 0.69 µM

COc1ccccc1-c1cc2ccc(C)cc2c(N)n1 [Compound 37, 3-(2-Methoxyphenyl)-7-methylisoquinolin-1-amine]
IC50 (PC3 (prostate)): 1.01 µM
IC50 (SNB-19 (glioblastoma)): 0.78 µM
IC50 (PANC-1 (pancreas)): 0.68 µM
IC50 (MDA-MB-231 (breast)): 0.32 µM
IC50 (SK-MEL-28 (melanoma)): 0.67 µM
IC50 (HCT116 (colon)): 0.47 µM
IC50 (OVCAR-3 (ovary)): 0.51 µM
IC50 (Caki-1 (kidney)): 0.22 µM

COc1cccc(-c2cc3ccc(C)cc3c(N)n2)c1 [Compound 38, 3-(3-Methoxyphenyl)-7-methylisoquinolin-1-amine]
IC50 (PC3 (prostate)): 0.42 µM
IC50 (SNB-19 (glioblastoma)): 0.48 µM
IC50 (PANC-1 (pancreas)): 0.47 µM
IC50 (MDA-MB-231 (breast)): 0.17 µM
IC50 (SK-MEL-28 (melanoma)): 0.41 µM
IC50 (HCT116 (colon)): 0.21 µM
IC50 (OVCAR-3 (ovary)): 0.24 µM
IC50 (Caki-1 (kidney)): 0.14 µM

Cc1ccc2cc(-c3ccccc3F)nc(N)c2c1 [Compound 41, 3-(2-Fluorophenyl)-7-methylisoquinolin-1-amine]
IC50 (PC3 (prostate)): 2.76 µM
IC50 (SNB-19 (glioblastoma)): 2.2 µM
IC50 (PANC-1 (pancreas)): 2.14 µM
IC50 (MDA-MB-231 (breast)): 0.72 µM
IC50 (SK-MEL-28 (melanoma)): 1.62 µM
IC50 (HCT116 (colon)): 1.22 µM
IC50 (OVCAR-3 (ovary)): 0.91 µM
IC50 (Caki-1 (kidney)): 0.59 µM

Cc1cccc(-c2cc3ccc(C)cc3c(N)n2)c1 [Compound 49, 7-Methyl-3-m-tolylisoquinolin-1-amine]
IC50 (PC3 (prostate)): 0.71 µM
IC50 (SNB-19 (glioblastoma)): 0.53 µM
IC50 (PANC-1 (pancreas)): 0.69 µM
IC50 (MDA-MB-231 (breast)): 0.21 µM
IC50 (SK-MEL-28 (melanoma)): 0.5 µM
IC50 (HCT116 (colon)): 0.28 µM
IC50 (OVCAR-3 (ovary)): 0.29 µM
IC50 (Caki-1 (kidney)): 0.44 µM

COc1cc2cc(-c3ccccc3)nc(N)c2cc1OC [Compound 51, 6,7-Dimethoxy-3-phenylisoquinolin-1-amine]
IC50 (PC3 (prostate)): 0.58 µM
IC50 (SNB-19 (glioblastoma)): 0.71 µM
IC50 (PANC-1 (pancreas)): 0.67 µM
IC50 (MDA-MB-231 (breast)): 0.44 µM
IC50 (SK-MEL-28 (melanoma)): 0.75 µM
IC50 (HCT116 (colon)): 0.52 µM
IC50 (OVCAR-3 (ovary)): 0.27 µM
IC50 (Caki-1 (kidney)): 0.59 µM

COc1cc2cc(-c3c(C)cccc3C)nc(N)c2cc1OC [Compound 53, 6,7-Dimethoxy-3-(2,6-dimethylphenyl)isoquinolin-1-amine]
IC50 (PC3 (prostate)): 0.68 µM
IC50 (SNB-19 (glioblastoma)): 0.42 µM
IC50 (PANC-1 (pancreas)): 0.54 µM
IC50 (MDA-MB-231 (breast)): 0.25 µM
IC50 (SK-MEL-28 (melanoma)): 0.63 µM
IC50 (HCT116 (colon)): 0.79 µM
IC50 (OVCAR-3 (ovary)): 0.16 µM
IC50 (Caki-1 (kidney)): 0.53 µM

COc1cc2cc(-c3cccc(C)c3)nc(N)c2cc1OC [Compound 54, 6,7-Dimethoxy-3-m-tolylisoquinolin-1-amine]
IC50 (PC3 (prostate)): 2.5 µM
IC50 (SNB-19 (glioblastoma)): 1.56 µM
IC50 (PANC-1 (pancreas)): 2.27 µM
IC50 (MDA-MB-231 (breast)): 0.79 µM
IC50 (SK-MEL-28 (melanoma)): 1.12 µM
IC50 (HCT116 (colon)): 2.32 µM
IC50 (OVCAR-3 (ovary)): 0.58 µM
IC50 (Caki-1 (kidney)): 1.78 µM

COc1cc(OC)cc(-c2cc3cc(OC)c(OC)cc3c(N)n2)c1 [Compound 55, 6,7-Dimethoxy-3-(3,5-dimethoxyphenyl)isoquinolin-1-amine]
IC50 (PC3 (prostate)): 0.72 µM
IC50 (SNB-19 (glioblastoma)): 0.4 µM
IC50 (PANC-1 (pancreas)): 0.7 µM
IC50 (MDA-MB-231 (breast)): 0.4 µM
IC50 (SK-MEL-28 (melanoma)): 0.69 µM
IC50 (HCT116 (colon)): 0.77 µM
IC50 (OVCAR-3 (ovary)): 0.19 µM
IC50 (Caki-1 (kidney)): 0.54 µM

COc1cc2cc(-c3ccccc3C)nc(N)c2cc1OC [Compound 56, 6,7-Dimethoxy-3-o-tolylisoquinolin-1-amine]
IC50 (PC3 (prostate)): 1.25 µM
IC50 (SNB-19 (glioblastoma)): 0.56 µM
IC50 (PANC-1 (pancreas)): 0.83 µM
IC50 (MDA-MB-231 (breast)): 0.54 µM
IC50 (SK-MEL-28 (melanoma)): 0.91 µM
IC50 (HCT116 (colon)): 0.78 µM
IC50 (OVCAR-3 (ovary)): 0.38 µM
IC50 (Caki-1 (kidney)): 0.67 µM
